From patent US12371454B2, “Cyclic peptide compound having Kras inhibitory action” (priority 2019, dated 2025)
pIC50: −log10 of the molar value. Starred links: 1 amine or outer side, 2 acyl side, 3 side chain; linkers in the order of their positions; H or OH if unused. Positions of bridges follow the written chain, without caps; N, C: chain ends. Non-standard residues stand in square brackets, D forms with d. Residues, ends and D or L forms follow the SMILES beside them. *: point of attachment. hPhe(3-Cl-4-CF3) = N[C@@H](CCc1ccc(C(F)(F)F)c(Cl)c1)C(=O)O; hPhe(3-F,4-CF3) = N[C@@H](CCc1ccc(C(F)(F)F)c(F)c1)C(=O)O; X37 = O=C([C@H](CCc1ccc(C(F)F)c(F)c1)N[*:1])[*:2]; X85 = O=C([C@@H]1C[C@@H](n2ccnn2)CN1[*:1])[*:2]; X69 = O=C([C@@H]1C[C@H](n2ccnn2)CN1[*:1])[*:2]; NMeAla(cPent) = CN[C@@H](CC1CCCC1)C(=O)O; NMeGly(cPent) = CN[C@H](C(=O)O)C1CCCC1; mXylylene = c1cc(C[*:1])cc(C[*:2])c1; NMeCha = CN[C@@H](CC1CCCCC1)C(=O)O; cisHyp = O=C(O)[C@@H]1C[C@H](O)CN1; Hyp = O=C(O)[C@@H]1C[C@@H](O)CN1; NMeChg = CN[C@H](C(=O)O)C1CCCCC1; NMeD = CN[C@@H](CC(=O)O)C(=O)O; NMeL = CN[C@@H](CC(C)C)C(=O)O; NMeV = CN[C@H](C(=O)O)C(C)C; Azetidin(1-yl) = C1CN(*)C1; NMeA = CN[C@@H](C)C(=O)O; Piperidide = C1CCN(*)CC1; Pyrrolidide = C1CCN(*)C1; Ac5c = NC1(C(=O)O)CCCC1; Aze = O=C(O)[C@@H]1CCN1; Ethyl(2,2-F2) = FC(F)C*; Ethyl(2-OH) = OCC*; X24 = c1cncc(C*)c1; X36 = c1cc(C*)cs1; Sar = CNCC(=O)O

test system: Human pancreatic cancer cell line AsPC-1; test: Measurement of AsPC-1 cell growth inhibition (AsPC-1 CGI); type: cell-based; settings: 96 h
Method in brief: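 AsPC-1 cells in 15% FBS RPMI-1640 were exposed to test compound for 96 hours at 37° C, with CellTiter-Glo as endpoint.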

SMILES | pIC50
CC[C@H](C)[C@@H]1NC(=O)[C@H](CC(C)C)N(C)C(=O)C[C@@H](C(=O)N2CCCCC2)N(C)C(=O)[C@H](C2CCCC2)N(C)C(=O)C2(CCCC2)NC(=O)[C@@H]2CCCN2C(=O)[C@H](CCc2ccc(C(F)F)c(F)c2)NC(=O)CN(C)C(=O)[C@H](CC2CCCCC2)N(C)C(=O)[C@@H]2CCN2C(=O)[C@H](C)N(C)C1=O [Compound 2085, (5S,8S,11S,15S,18S,23aS,29S,35S,37aS)-8-((S)-sec-butyl)-35-(cyclohexylmethyl)-18-cyclopentyl-29-(4-(difluoromethyl)-3-fluorophenethyl)-11-isobutyl-5,6,12,16,19,33,36-heptamethyl-15-(piperidin-1-carbonyl)docosahydro-2H,4H-spiro[azeto[2,1-u]pyrrolo[2,1-i][1,4,7,10,13,16,19,22,25,28,31]undecazacyclotetratriacontyne-21,1′-cyclopentane]-4,7,10,13,17,20,23,28,31,34,37(14H,22H)-undecone] ([NMeL]I[NMeA][Aze][NMeCha][Sar][X37]P[Ac5c][NMeGly(cPent)][NMeD]-Piperidide; lactam N-11) | 6.30 to 7.00
CC[C@H](C)[C@@H]1NC(=O)[C@H](CC(C)C)N(C)C(=O)C[C@@H](C(=O)N(C)C)N(C)C(=O)[C@H](C2CCCC2)N(C)C(=O)C2(CCCC2)NC(=O)[C@H](CC(=O)N2CCCC2)N(C)C(=O)[C@H](CCc2ccc(C(F)(F)F)c(Cl)c2)NC(=O)CN(C)C(=O)[C@H](CC2CCCCC2)N(C)C(=O)[C@@H]2CCN2C(=O)[C@H](C)N(C)C1=O [Compound 2097] ([NMeL]I[NMeA][Aze][NMeCha][Sar][hPhe(3-Cl-4-CF3)][NMeD](Pyrrolidide)[Ac5c][NMeGly(cPent)][NMeD]-NMe2; lactam N-11) | 6.30 to 7.00
CC[C@H](C)[C@@H]1NC(=O)[C@H](CC(C)C)N(C)C(=O)C[C@@H](C(=O)N(C)C)N(C)C(=O)[C@H](C2CCCC2)N(C)C(=O)C2(CCCC2)NC(=O)[C@H](CC(=O)N2CCC2)N(C)C(=O)[C@H](CCc2ccc(C(F)(F)F)c(Cl)c2)NC(=O)CN(C)C(=O)[C@H](CC2CCCCC2)N(C)C(=O)[C@@H]2CCN2C(=O)[C@H](C)N(C)C1=O [Compound 2102] ([NMeL]I[NMeA][Aze][NMeCha][Sar][hPhe(3-Cl-4-CF3)][NMeD](Azetidin(1-yl))[Ac5c][NMeGly(cPent)][NMeD]-NMe2; lactam N-11) | 6.30 to 7.00
CC[C@H](C)[C@@H]1NC(=O)[C@H](CC(C)C)N(C)C(=O)C[C@@H](C(=O)N2CCCCC2)N(C)C(=O)[C@H](C(C)C)N(C)C(=O)C2(CCCC2)NC(=O)[C@@H]2C[C@@H](n3ccnn3)CN2C(=O)[C@H](CCc2ccc(C(F)(F)F)c(Cl)c2)NC(=O)CN(C)C(=O)[C@H](CC2CCCC2)N(C)C(=O)CN(C)C(=O)CN(C)C1=O [Compound 2113, (3S,9S,18S,21S,25S,28S,34S,36R)-3-[2-[3-chloro-4-(trifluoromethyl)phenyl]ethyl]-9-(cyclopentylmethyl)-21-isobutyl-28-isopropyl-7,10,13,16,22,26,29-heptamethyl-18-[(1S)-1-methylpropyl]-25-(piperidine-1-carbonyl)-36-(triazol-1-yl)spiro[1,4,7,10,13,16,19,22,26,29,32-undecazabicyclo[32.3.0]heptatriacontane-31,1′-cyclopentane]-2,5,8,11,14,17,20,23,27,30,33-undecone] ([NMeL]I[Sar][Sar][NMeAla(cPent)][Sar][hPhe(3-Cl-4-CF3)][X85][Ac5c][NMeV][NMeD]-Piperidide; lactam N-11) | < 6.30
CC[C@H](C)[C@@H]1NC(=O)[C@H](CC(C)C)N(C)C(=O)C[C@@H](C(=O)N2CCCCC2)N(C)C(=O)[C@H](C(C)C)N(C)C(=O)C2(CCCC2)NC(=O)[C@@H]2C[C@H](n3ccnn3)CN2C(=O)[C@H](CCc2ccc(C(F)(F)F)c(Cl)c2)NC(=O)CN(C)C(=O)[C@H](CC2CCCC2)N(C)C(=O)CN(C)C(=O)CN(C)C1=O [Compound 2115, (3S,9S,18S,21S,25S,28S,34S,36S)-3-[2-[3-chloro-4-(trifluoromethyl)phenyl]ethyl]-9-(cyclopentylmethyl)-21-isobutyl-28-isopropyl-7,10,13,16,22,26,29-heptamethyl-18-[(1S)-1-methylpropyl]-25-(piperidine-1-carbonyl)-36-(triazol-1-yl)spiro[1,4,7,10,13,16,19,22,26,29,32-undecazabicyclo[32.3.0]heptatriacontane-31,1′-cyclopentane]-2,5,8,11,14,17,20,23,27,30,33-undecone] ([NMeL]I[Sar][Sar][NMeAla(cPent)][Sar][hPhe(3-Cl-4-CF3)][X69][Ac5c][NMeV][NMeD]-Piperidide; lactam N-11) | < 6.30
CC[C@H](C)[C@@H]1NC(=O)[C@H](CC(C)C)N(C)C(=O)C[C@@H](C(=O)N2CCCCC2)N(C)C(=O)[C@H](C2CCCCC2)N(C)C(=O)C2(CCCC2)NC(=O)[C@@H]2C[C@H](OCCO)CN2C(=O)[C@H](CCc2ccc(C(F)(F)F)c(Cl)c2)NC(=O)CN(C)C(=O)[C@H](CC2CCCCC2)N(C)C(=O)CN(C)C(=O)CN(C)C1=O [Compound 2117, (3S,9S,18S,21S,25S,28S,34S,36S)-3-[2-[3-chloro-4-(trifluoromethyl)phenyl]ethyl]-28-cyclohexyl-9-(cyclohexylmethyl)-36-(2-hydroxyethoxy)-21-isobutyl-7,10,13,16,22,26,29-heptamethyl-18-[(1S)-1-methylpropyl]-25-(piperidine-1-carbonyl)spiro[1,4,7,10,13,16,19,22,26,29,32-undecazabicyclo[32.3.0]heptatriacontane-31,1′-cyclopentane]-2,5,8,11,14,17,20,23,27,30,33-undecone] ([NMeL]I[Sar][Sar][NMeCha][Sar][hPhe(3-Cl-4-CF3)][cisHyp](Ethyl(2-OH))[Ac5c][NMeChg][NMeD]-Piperidide; lactam N-11) | 6.30 to 7.00
CC[C@H](C)[C@@H]1NC(=O)[C@H](CC(C)C)N(C)C(=O)C[C@@H](C(=O)N2CCCCC2)N(C)C(=O)[C@H](C2CCCCC2)N(C)C(=O)C2(CCCC2)NC(=O)[C@@H]2C[C@@H](OCC(F)F)CN2C(=O)[C@H](CCc2ccc(C(F)(F)F)c(Cl)c2)NC(=O)CN(C)C(=O)[C@H](CC2CCCCC2)N(C)C(=O)CN(C)C(=O)CN(C)C1=O [Compound 2119] ([NMeL]I[Sar][Sar][NMeCha][Sar][hPhe(3-Cl-4-CF3)][Hyp](Ethyl(2,2-F2))[Ac5c][NMeChg][NMeD]-Piperidide; lactam N-11) | 7.30 to 7.70
CC[C@H](C)[C@@H]1NC(=O)[C@H](CC(C)C)N(C)C(=O)C[C@@H](C(=O)N2CCCCC2)N(C)C(=O)[C@H](C2CCCCC2)N(C)C(=O)C2(CCCC2)NC(=O)[C@@H]2C[C@H](OCc3cccnc3)CN2C(=O)[C@H](CCc2ccc(C(F)(F)F)c(Cl)c2)NC(=O)CN(C)C(=O)[C@H](CC2CCCCC2)N(C)C(=O)CN(C)C(=O)CN(C)C1=O [Compound 2120] ([NMeL]I[Sar][Sar][NMeCha][Sar][hPhe(3-Cl-4-CF3)][cisHyp](X24)[Ac5c][NMeChg][NMeD]-Piperidide; lactam N-11) | 6.30 to 7.00
CC[C@H](C)[C@@H]1NC(=O)[C@H](CC(C)C)N(C)C(=O)C[C@@H](C(=O)N2CCCCC2)N(C)C(=O)[C@H](C2CCCCC2)N(C)C(=O)C2(CCCC2)NC(=O)[C@@H]2C[C@@H](OCc3cccnc3)CN2C(=O)[C@H](CCc2ccc(C(F)(F)F)c(Cl)c2)NC(=O)CN(C)C(=O)[C@H](CC2CCCCC2)N(C)C(=O)CN(C)C(=O)CN(C)C1=O [Compound 2121] ([NMeL]I[Sar][Sar][NMeCha][Sar][hPhe(3-Cl-4-CF3)][Hyp](X24)[Ac5c][NMeChg][NMeD]-Piperidide; lactam N-11) | 7.00 to 7.30
CC[C@H](C)[C@@H]1NC(=O)[C@H](CC(C)C)N(C)C(=O)C[C@@H](C(=O)N2CCCCC2)N(C)C(=O)[C@H](C2CCCCC2)N(C)C(=O)C2(CCCC2)NC(=O)[C@@H]2C[C@@H](OCCO)CN2C(=O)[C@H](CCc2ccc(C(F)(F)F)c(Cl)c2)NC(=O)CN(C)C(=O)[C@H](CC2CCCCC2)N(C)C(=O)CN(C)C(=O)CN(C)C1=O [Compound 2122, (3S,9S,18S,21S,25S,28S,34S,36R)-3-[2-[3-chloro-4-(trifluoromethyl)phenyl]ethyl]-28-cyclohexyl-9-(cyclohexylmethyl)-36-(2-hydroxyethoxy)-21-isobutyl-7,10,13,16,22,26,29-heptamethyl-18-[(1S)-1-methylpropyl]-25-(piperidine-1-carbonyl)spiro[1,4,7,10,13,16,19,22,26,29,32-undecazabicyclo[32.3.0]heptatriacontane-31,1′-cyclopentane]-2,5,8,11,14,17,20,23,27,30,33-undecone] ([NMeL]I[Sar][Sar][NMeCha][Sar][hPhe(3-Cl-4-CF3)][Hyp](Ethyl(2-OH))[Ac5c][NMeChg][NMeD]-Piperidide; lactam N-11) | 7.00 to 7.30
CC[C@H](C)[C@@H]1NC(=O)[C@H](CC(C)C)N(C)C(=O)C[C@@H](C(=O)N2CCCCC2)N(C)C(=O)[C@H](C2CCCCC2)N(C)C(=O)C2(CCCC2)NC(=O)[C@@H]2C[C@H](OCC(F)F)CN2C(=O)[C@H](CCc2ccc(C(F)(F)F)c(Cl)c2)NC(=O)CN(C)C(=O)[C@H](CC2CCCCC2)N(C)C(=O)CN(C)C(=O)CN(C)C1=O [Compound 2123] ([NMeL]I[Sar][Sar][NMeCha][Sar][hPhe(3-Cl-4-CF3)][cisHyp](Ethyl(2,2-F2))[Ac5c][NMeChg][NMeD]-Piperidide; lactam N-11) | 6.30 to 7.00
CC[C@H](C)[C@@H]1NC(=O)[C@H](CC(C)C)N(C)C(=O)C[C@@H](C(=O)N2CCCCC2)N(C)C(=O)[C@H](C2CCCCC2)N(C)C(=O)C2(CCCC2)NC(=O)[C@@H]2C[C@@H](OCc3ccsc3)CN2C(=O)[C@H](CCc2ccc(C(F)(F)F)c(Cl)c2)NC(=O)CN(C)C(=O)[C@H](CC2CCCCC2)N(C)C(=O)CN(C)C(=O)CN(C)C1=O [Compound 2124] ([NMeL]I[Sar][Sar][NMeCha][Sar][hPhe(3-Cl-4-CF3)][Hyp](X36)[Ac5c][NMeChg][NMeD]-Piperidide; lactam N-11) | 6.30 to 7.00
CC[C@H](C)[C@@H]1NC(=O)[C@H](CC(C)C)N(C)C(=O)C[C@@H](C(=O)N2CCCCC2)N(C)C(=O)[C@H](CC(C)C)N(C)C(=O)C2(CCCC2)NC(=O)[C@@H]2C[C@@H](OCc3cccc(C)c3)CN2C(=O)[C@H](CCc2ccc(C(F)(F)F)c(F)c2)NC(=O)CN(C)C(=O)[C@H](CC2CCCCC2)N(C)C(=O)CN(C)C(=O)CN(C)C1=O [Compound 2125] ([NMeL]I[Sar][Sar][NMeCha][Sar][hPhe(3-F,4-CF3)][Hyp](mXylylene)[Ac5c][NMeL][NMeD]-Piperidide; lactam N-11) | < 6.30
